Experimental data published in patent US10118947B2, “Modulation of structured polypeptide specificity” (BICYCLE THERAPEUTICS LIMITED, priority 2013, dated 2018).
Where two headings read alike, the source gives them in different places. One block for each compound: values may come before it. Numbered stars: 1 amine (or outer) side, 2 acyl side, 3 side chain; on linkers, the order of the positions; unused ones are H or OH. Bridge positions count the residues as written; N and C are the ends. Square brackets hold non-standard residues; d marks the D form. Peptide text beside a SMILES is read from it. Ala(4-thiazolyl) = N[C@@H](Cc1cscn1)C(=O)O; TBMB = c1c(C[*:1])cc(C[*:3])cc1C[*:2]; His(π-Me) = Cn1cncc1C[C@H](N)C(=O)O; β3hQ = NC(=O)CC[C@H](N)CC(=O)O; Dap = NC[C@H](N)C(=O)O

Target: T1, human plasma Kallikrein (Homo sapiens, UniProt P03952)
T1 construct: purchased Stratech, UK
Assay: Functional enzyme inhibition assay with fluorogenic substrate Z-PheArg-AMC, human plasma Kallikrein
Type: biochemical
Conditions: for Ki: read-out: Ki; for F (Kivar/KiWT): ratio of Ki to wild type
Protocol: Functional enzyme assays were conducted in 10 mM Tris HCl, 150 mM NaCl, 10 mM MgCl2, 1 mM CaCl2) and 1 mg/mL BSA (all Sigma UK) pH7.4 at 25° C. in solid black 96 well plates. Briefly 26.5 pM human plasma Kallikrein (purchased from Stratech, UK) or 500 pM rat plasma Kallikrein (expressed and purified in house) were incubated in the absence or presence of increasing concentrations of test peptide for 15 minutes before addition of the fluorogenic substrate Z-PheArg-AMC (Enzo Lifesciences UK) to a final assay concentration of 100 μM in 4% DMSO. Release of AMC was measured using a Pherastar FS (BMG Labtech), excitation 360 nm, emission 460 nm. The rate of the linear phase of the reaction, typically 5 to 45 minutes, was calculated in MARS data analysis software (BMG labtech). The rate was then used to calculate the IC50 and Ki in Prism (GraphPad). A four parameter inhibition non-linear regression equation was used to calculate the IC50.
Peptides were dissolved as the TFA-salts in their powder form, and stock solutions were usually prepared in water. All solutions were centrifuged and filtered ([…] syringe filters) prior absorption measurement at 280 nm. […] For peptides containing non-natural amino acids with suspected chromophoric properties (i.e. NorHar, 4PhenylPro, 3Pal, 4Pal, Tic, 4GuanPhe, 4,4-BPAI, 3,3-DPA, 1NAI, 2NAI, 4BenzylPro, Ind) concentrations were determined by weighing the powder and dissolving the peptide in a defined quantity of water.

[1] = Table 3c, D-Alanine scan in Loop2
[2] = Table 24c, residue 8 modifications
[3] = Table 24b, residue 7 modifications

T1 sequence (P03952 20-638): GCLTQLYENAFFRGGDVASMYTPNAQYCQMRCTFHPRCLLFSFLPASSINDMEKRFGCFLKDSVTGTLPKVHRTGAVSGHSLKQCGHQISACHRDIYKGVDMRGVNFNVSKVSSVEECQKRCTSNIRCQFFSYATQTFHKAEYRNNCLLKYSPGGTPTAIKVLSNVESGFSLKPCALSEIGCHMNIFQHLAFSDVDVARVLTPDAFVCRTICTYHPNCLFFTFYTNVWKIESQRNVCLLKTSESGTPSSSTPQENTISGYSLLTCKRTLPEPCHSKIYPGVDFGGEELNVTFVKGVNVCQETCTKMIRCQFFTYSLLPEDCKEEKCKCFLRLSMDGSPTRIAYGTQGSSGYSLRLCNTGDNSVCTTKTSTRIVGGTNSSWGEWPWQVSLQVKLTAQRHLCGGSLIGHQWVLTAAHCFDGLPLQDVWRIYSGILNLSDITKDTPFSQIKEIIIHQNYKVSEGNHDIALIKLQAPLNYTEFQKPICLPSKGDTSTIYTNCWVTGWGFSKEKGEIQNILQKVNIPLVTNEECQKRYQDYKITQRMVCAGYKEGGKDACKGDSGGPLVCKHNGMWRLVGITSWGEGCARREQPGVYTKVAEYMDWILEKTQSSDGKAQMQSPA

- F (Kivar/KiWT) (Table 24c): 193
SMILES: CC(=O)N[C@H]1CSCc2cc3cc(c2)CSC[C@H](NC(=O)[C@H](CCCNC(=N)N)NC(=O)[C@H](Cc2ccc(O)cc2)NC(=O)[C@@H]2CCCN2C(=O)[C@H](Cc2ccccc2)NC(=O)[C@H](CO)NC1=O)C(=O)N[C@@H](CC(C)C)C(=O)N[C@@H]([C@@H](C)O)C(=O)N[C@@H]([C@@H](C)O)C(=O)N[C@@H](CCC(=O)O)C(=O)N[C@@H](CC(C)C)C(=O)N[C@H](C(N)=O)CSC3 [Ac-(06-34-18) Phe2 Tyr4 Thr7 Thr8 Glu9] (Ac-CSFPYRCLTTELC-NH2; linker 1-7-13 via TBMB)

- Ki [3]: 292 nM
- F (Kivar/KiWT) (Table 24b): 696
SMILES: CC(=O)N[C@H]1CSCc2cc3cc(c2)CSC[C@H](NC(=O)[C@H](CCCNC(=N)N)NC(=O)[C@H](Cc2ccc(O)cc2)NC(=O)[C@@H]2CCCN2C(=O)[C@H](Cc2ccccc2)NC(=O)[C@H](CO)NC1=O)C(=O)N[C@@H](CC(C)C)C(=O)N[C@@H](Cc1cncn1C)C(=O)N[C@@H](CCC(N)=O)C(=O)N[C@@H](CC(=O)O)C(=O)N[C@@H](CC(C)C)C(=O)N[C@H](C(N)=O)CSC3 [Ac-(06-34-18) Phe2 Tyr4 His3Me7] (Ac-CSFPYRCL[His(π-Me)]QDLC-NH2; linker 1-7-13 via TBMB)

- Ki [2]: 16.8 nM
- F (Kivar/KiWT) (Table 24c): 40
SMILES: CC(=O)N[C@H]1CSCc2cc3cc(c2)CSC[C@H](NC(=O)[C@H](CCCNC(=N)N)NC(=O)[C@H](Cc2ccc(O)cc2)NC(=O)[C@@H]2CCCN2C(=O)[C@H](Cc2ccccc2)NC(=O)[C@H](CO)NC1=O)C(=O)N[C@@H](CC(C)C)C(=O)N[C@@H](Cc1c[nH]cn1)C(=O)N[C@@H](CCC(N)=O)CC(=O)N[C@@H](CC(=O)O)C(=O)N[C@@H](CC(C)C)C(=O)N[C@H](C(N)=O)CSC3 [Ac-(06-34-18) Phe2 Tyr4 bHGln8] (Ac-CSFPYRCLH[β3hQ]DLC-NH2; linker 1-7-13 via TBMB)

- Ki [2]: 5.49 nM
- F (Kivar/KiWT) (Table 24c): 13
SMILES: CC(=O)N[C@H]1CSCc2cc3cc(c2)CSC[C@H](NC(=O)[C@H](CCCNC(=N)N)NC(=O)[C@H](Cc2ccc(O)cc2)NC(=O)[C@@H]2CCCN2C(=O)[C@H](Cc2ccccc2)NC(=O)[C@H](CO)NC1=O)C(=O)N[C@@H](CC(C)C)C(=O)N[C@@H](Cc1c[nH]cn1)C(=O)N[C@@H](CN)C(=O)N[C@@H](CC(=O)O)C(=O)N[C@@H](CC(C)C)C(=O)N[C@H](C(N)=O)CSC3 [Ac-(06-34-18) Phe2 Tyr4 Dap8] (Ac-CSFPYRCLH[Dap]DLC-NH2; linker 1-7-13 via TBMB)

The remaining lines, values behind:

SMILES: CC(=O)N[C@H]1CSCc2cc3cc(c2)CSC[C@H](NC(=O)[C@H](CCCNC(=N)N)NC(=O)[C@@H](C)NC(=O)[C@@H]2CCCN2C(=O)[C@H](Cc2c[nH]c4ccccc24)NC(=O)[C@H](CO)NC1=O)C(=O)N[C@@H](CC(C)C)C(=O)N[C@@H](Cc1c[nH]cn1)C(=O)N[C@@H](CCC(N)=O)C(=O)N[C@@H](CC(=O)O)C(=O)N[C@@H](CC(C)C)C(=O)N[C@H](C(N)=O)CSC3 [Ac-(06-34-18) D-Ala4]
- reduction in potency/affinity compared to wildtype: 7000 fold

SMILES: CC(=O)N[C@H]1CSCc2cc3cc(c2)CSC[C@H](NC(=O)[C@H](CCCNC(=N)N)NC(=O)[C@H](C)NC(=O)[C@@H]2CCCN2C(=O)[C@H](Cc2c[nH]c4ccccc24)NC(=O)[C@H](CO)NC1=O)C(=O)N[C@H](C)C(=O)N[C@@H](Cc1c[nH]cn1)C(=O)N[C@@H](CCC(N)=O)C(=O)N[C@@H](CC(=O)O)C(=O)N[C@@H](CC(C)C)C(=O)N[C@H](C(N)=O)CSC3 [Ac-(06-34-18) D-Ala6] (Ac-CSWPARC[dA]HQDLC-NH2; linker 1-7-13 via TBMB)
- Ki [1]: 1040 nM
- F (Kivar/KiWT) (Table 3c): 2469

SMILES: CC(=O)N[C@H]1CSCc2cc3cc(c2)CSC[C@H](NC(=O)[C@H](CCCNC(=N)N)NC(=O)[C@H](Cc2ccc(O)cc2)NC(=O)[C@@H]2CCCN2C(=O)[C@H](Cc2ccccc2)NC(=O)[C@H](CO)NC1=O)C(=O)N[C@@H](CC(C)C)C(=O)N[C@@H](Cc1c[nH]cn1)C(=O)N[C@@H](CC(=O)O)C(=O)N[C@@H](CC(=O)O)C(=O)N[C@@H](CC(C)C)C(=O)N[C@H](C(N)=O)CSC3 [Ac-(06-34-18) Phe2 Tyr4 Asp8] (Ac-CSFPYRCLHDDLC-NH2; linker 1-7-13 via TBMB)
- Ki [2]: 3.83 nM
- F (Kivar/KiWT) (Table 24c): 9

SMILES: CC(=O)N[C@H]1CSCc2cc3cc(c2)CSC[C@H](NC(=O)[C@H](CCCNC(=N)N)NC(=O)[C@H](Cc2ccc(O)cc2)NC(=O)[C@@H]2CCCN2C(=O)[C@H](Cc2ccccc2)NC(=O)[C@H](CO)NC1=O)C(=O)N[C@@H](CC(C)C)C(=O)N[C@@H](Cc1cscn1)C(=O)N[C@@H](CCC(N)=O)C(=O)N[C@@H](CC(=O)O)C(=O)N[C@@H](CC(C)C)C(=O)N[C@H](C(N)=O)CSC3 [Ac-(06-34-18) Phe2 Tyr4 4ThiAz7] (Ac-CSFPYRCL[Ala(4-thiazolyl)]QDLC-NH2; linker 1-7-13 via TBMB)
- Ki [3]: 14 nM
- F (Kivar/KiWT) (Table 24b): 33

SMILES: CC(C)C[C@@H]1NC(=O)[C@H](CC(=O)O)NC(=O)[C@H](CCC(N)=O)NC(=O)[C@H](Cc2c[nH]cn2)NC(=O)[C@H](C)NC(=O)[C@@H]2CSCc3cc(cc(c3)CSC[C@@H](C(=O)N[C@@H](C)C(N)=O)NC1=O)CSC[C@H](NC(=O)[C@H](C)N)C(=O)N[C@@H](C)C(=O)N[C@@H](Cc1c[nH]c3ccccc13)C(=O)N1CCC[C@H]1C(=O)N[C@@H](C)C(=O)N[C@@H](CCCNC(=N)N)C(=O)N2 [06-34-03-Ala1,6] (H-ACAWPARCAHQDLCA-NH2; linker 2-8-14 via TBMB)
- potency / binding to kallikrein (in words): retained full potency compared to the parent

SMILES: CC(=O)N[C@H]1CSCc2cc3cc(c2)CSC[C@H](NC(=O)[C@H](CCCNC(=N)N)NC(=O)[C@H](C)NC(=O)[C@@H]2CCCN2C(=O)[C@H](Cc2c[nH]c4ccccc24)NC(=O)[C@H](CO)NC1=O)C(=O)N[C@@H](CC(C)C)C(=O)N[C@@H](Cc1c[nH]cn1)C(=O)N[C@@H](CCC(N)=O)C(=O)N[C@H](C)C(=O)N[C@@H](CC(C)C)C(=O)N[C@H](C(N)=O)CSC3 [Ac-(06-34-18) D-Ala9] (Ac-CSWPARCLHQ[dA]LC-NH2; linker 1-7-13 via TBMB)
- Ki [1]: 0.87 nM
- F (Kivar/KiWT) (Table 3c): 2

SMILES: CC(=O)N[C@H]1CSCc2cc3cc(c2)CSC[C@H](NC(=O)[C@H](CCCNC(=N)N)NC(=O)[C@H](Cc2ccc(O)cc2)NC(=O)[C@@H]2CCCN2C(=O)[C@H](Cc2ccccc2)NC(=O)[C@H](CO)NC1=O)C(=O)N[C@@H](CC(C)C)C(=O)N[C@@H](CN)C(=O)N[C@@H](CCC(N)=O)C(=O)N[C@@H](CC(=O)O)C(=O)N[C@@H](CC(C)C)C(=O)N[C@H](C(N)=O)CSC3 [Ac-(06-34-18) Phe2 Tyr4 Dap7] (Ac-CSFPYRCL[Dap]QDLC-NH2; linker 1-7-13 via TBMB)
- Ki [3]: 246 nM
- F (Kivar/KiWT) (Table 24b): 586

SMILES: CC(=O)N[C@H]1CSCc2cc3cc(c2)CSC[C@H](NC(=O)[C@H](CCCNC(=N)N)NC(=O)[C@H](Cc2ccc(O)cc2)NC(=O)[C@@H]2CCCN2C(=O)[C@H](Cc2ccccc2)NC(=O)[C@H](CO)NC1=O)C(=O)N[C@@H](CC(C)C)C(=O)N[C@@H](Cc1c[nH]cn1)C(=O)N[C@@H](CCC(N)=O)C(=O)N[C@@H](CC(=O)O)C(=O)N[C@H](C)C(=O)N[C@H](C(N)=O)CSC3 [Ac-(06-34-18) Phe2 Tyr4 D-Ala10] (Ac-CSFPYRCLHQD[dA]C-NH2; linker 1-7-13 via TBMB)
- Ki [1]: 572 nM
- F (Kivar/KiWT) (Table 3c): 1362
